Here are results for one molecule from patent US20110178118A1, “PALONOSETRON FOR THE TREATMENT OF CHEMOTHERAPY INDUCED EMESES” (priority 2002, published 2011).

The subject of the assay is cisplatin-induced emesis. Briefly: Duration of action in cisplatin-treated dogs. The class given is in vivo. The settings on record: 0.04 mg/kg IV. The protocol: Mean numbers of episodes were computed and the statistical significance of differences between treatment groups were determined with Dunnett's t test. Solutions of palonosetron and comparator drugs (ondansetron and granisetron) were prepared in distilled water. Vehicle control groups received distilled water.

For `CN1C2CCCC1CC(NC(=O)c1nn(C)c3ccccc13)C2` (centres unmarked) [Granisetron], where the note is “1 to 12 hours before cisplatin”, the “antiemetic effect in duration of action experiments” value is “without antiemetic effect”. In addition, the “Emetic Episodes (mean ± SD)” value reads like this: (1 hr pre-cisplatin 3.0 mg/kg IV) 12.33 ± 4.32; (2 hr pre-cisplatin 3.0 mg/kg IV) 9.67 ± 4.46; (4 hr pre-cisplatin 3.0 mg/kg IV) 13.83 ± 7.25; (6 hr pre-cisplatin 3.0 mg/kg IV) 21.33 ± 9.54; (8 hr pre-cisplatin 3.0 mg/kg IV) 14.67 ± 8.69; (10 hr pre-cisplatin 3.0 mg/kg IV) 23.00 ± 5.87. Also, under “12 hr pre-cisplatin 3.0 mg/kg IV”, the “Emetic Episodes (mean ± SD)” value was 15.67 ± 6.28.
